Measured values: paper PMC9582199, “Molecular architecture of the glycogen- committed PP1/PTG holoenzyme” (Nature Communications, 2022)
Where two headings read alike, the source gives them in different places. Values belong to the molecule of their own block, whether it stands above or below them.

How the values were obtained:
[1] = biological target: T1, PTG CBM21 (residues 132–264) (Homo sapiens, UniProt Q9UQK1); assay: ITC titration of PTG CBM21 with β-cyclodextrin; assay type: binding; conditions: 25 °C
T1 sequence (Q9UQK1 132-264): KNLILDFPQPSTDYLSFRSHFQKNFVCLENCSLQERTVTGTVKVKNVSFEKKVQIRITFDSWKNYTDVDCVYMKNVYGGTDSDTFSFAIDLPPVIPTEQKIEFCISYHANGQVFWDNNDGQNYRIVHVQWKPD
Method: ITC experiments were performed using an ITC 200 microcalorimeter (Malvern Panalytical, UK) at 25 °C with a stirring speed of 750 rpm in 25 mM Hepes pH 7.4, 0.2 M NaCl, 5% glycerol with 180 s separating the injections. β-cyclodextrin was dissolved in the running buffer and two datasets were collected, one with PTG CBM21 concentration at 100 μM and β-cyclodextrin at 3 mM with 40 injections of 1 µl, the other at 200 μM and 4 mM, respectively, with 80 injections of 1 µl. A blank run with only the buffer was carried out. Data analysis was done with ORIGIN subtracting the blank titrations fitting ‘one site’ and ‘two sites’ models.

PTG132-264 (CBM) = biological target: T2, PTG132-264 (CBM) (Homo sapiens, UniProt Q9UQK1); assay: GCI binding kinetics of β-cyclodextrin on immobilized PTG; conditions: 25 °C, 10 mM Hepes pH 7.2, 150 mM NaCl, 0.005% Tween 20, 1:3 dilutions from 500 µM
T2 sequence (Q9UQK1 132-264): T1 sequence (Q9UQK1 132-264)
Method: (§1) Grating-coupled interferometry (GCI) experiments were performed using the Creoptix WAVE system, a new generation instrument for the high-sensitivity kinetics and affinity analysis of label-free molecular interactions based on the waveguide interferometry technology. Waveguide interferometry exceeds the sensitivity levels of Surface Plasmon Resonance (SPR). […] GCI allows getting high resolution even at very low signal levels with low noise without artificial data averaging and reliable kinetics below 1 pg/mm^2. By the lower immobilization levels that are required, it avoids mass transport limitations. It covers the broadest kinetic range with the capability of analyzing of the ultra-fast transition times (i.e. 150 ms). It allows the reliable determination of off-rates of 5 s^–1 and even faster, enabling off-rate screening of weakly binding analytes. GCI can be applied to a wide range of pharmacological targets, with improved results on very low molecular weight compounds, to the dimensions of metal ions[56].
(§2) WAVE chips are composed of four channels or cells. Borate buffer (100 mM sodium borate pH 9.0, 1 M NaCl) was used for chip conditioning. […]
(§3) Supplementary Figure 3: Quantitative binding kinetics by GCI. […]

R. oryzae CBM21 = conditions: cited from earlier work
Source text: (§4) The same two sugar-binding sites have been identified in the crystal structures of Rhizopus oryzae CBM21[13],[14]; site II is the primary binding site, while site I has been hypothesized to contribute to the binding of long-chain soluble polysaccharides and insoluble starch or to the relaxation and unwinding of helical amylose[15],[16].

GM CBM21 = conditions: cited from earlier work
Source text: as §4

PP1 7-330 = biological target: T3, PP1 7-330 (Homo sapiens, UniProt P62136); assay: GCI binding kinetics of PTG-derived peptides on captured PP1; conditions: 25 °C, 6xHis-PP1 7-330 captured on NTA chip, peptide 1:2 dilutions from 300 nM
T3 construct: reversibly capturing 6xHis-tagged PP1^7-330; host or cells: E. coli BL21 (DE3) pGro7
Method: as §1, §2, §3

PP1 = assay: Literature binding of GM constructs to PP1; conditions: GM 64–105 (KD 114 nM, ref 12) compared with the corresponding PTG peptide
[2] = 'two sites' model with stoichiometry fixed, average of two runs
[3] = 'two sites' model, average of two runs
[4] = 'two sites' model, average of two separate runs

T3 sequence (P62136 7-330): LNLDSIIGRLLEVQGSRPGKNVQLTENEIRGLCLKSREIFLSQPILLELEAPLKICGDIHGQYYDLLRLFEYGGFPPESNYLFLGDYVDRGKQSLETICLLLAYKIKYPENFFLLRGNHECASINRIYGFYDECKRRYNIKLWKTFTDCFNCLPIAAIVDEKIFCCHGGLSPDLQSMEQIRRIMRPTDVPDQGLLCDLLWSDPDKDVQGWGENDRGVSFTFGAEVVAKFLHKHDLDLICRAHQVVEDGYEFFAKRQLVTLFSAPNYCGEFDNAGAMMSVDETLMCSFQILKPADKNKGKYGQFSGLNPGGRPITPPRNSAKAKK

Kd ([1]; 25 mM Hepes pH 7.4, 0.2 M NaCl, 5% glycerol, 'one site' model, average of two separate runs, read-out: KD (KD1), 1 Site model): 59 ± 5 µM
ΔS1, 1 Site model ([1]; 'one site' model, average of two separate runs): -53 cal mol-1 K-1
N (stoichiometry), 1 Site model ([1]; 'one site' model, average of two separate runs, listed as b-cyclodextrin): 1.09
Kd ([1]; 'two sites' model with stoichiometry fixed (N 1.0 each site), average of two runs, read-out: KD1, 2 Sites fixed model, first site): 49 ± 4 µM
ΔH1, 2 Sites fixed model, first site [1, 2]: -24.6 ± 0.7 kcal/mol
ΔS1, 2 Sites fixed model, first site [1, 2]: -62 cal mol-1 K-1
ΔS2, 2 Sites fixed model, second site [1, 2]: 21 cal mol-1 K-1
Kd ([1]; 'two sites' model with stoichiometry fixed, average of two runs, spread ± 154, site spurious or ancillary, read-out: KD2, 2 Sites fixed model, second site): 346 µM
ΔH2, 2 Sites model, second site [1, 3]: -16 ± 2 kcal/mol
ΔS2, 2 Sites model, second site [1, 3]: -29 cal mol-1 K-1
N2, 2 Sites model, second site ([1]; 'two sites' model, average of two runs, paper calls second-site stoichiometry inconsistent): 0.3
Kd ([1]; 'two sites' model, average of two runs, second site judged inconsistent, read-out: KD2, 2 Sites model, second site): 3 ± 2 µM
N1, 2 Sites model, first site [1, 4]: 1.06
ΔH1, 2 Sites model, first site [1, 4]: -18 ± 4 kcal/mol
ΔS1, 2 Sites model, first site [1, 4]: -40 cal mol-1 K-1
Kd ([1]; 'two sites' model, average of two separate runs, read-out: KD1, 2 Sites model, first site): 63 ± 6 µM
Kd (PTG132-264 (CBM)): 37 ± 7 µM
Molecule: OC[C@H]1O[C@@H]2O[C@H]3[C@H](O)[C@@H](O)[C@@H](O[C@H]4[C@H](O)[C@@H](O)[C@@H](O[C@H]5[C@H](O)[C@@H](O)[C@@H](O[C@H]6[C@H](O)[C@@H](O)[C@@H](O[C@H]7[C@H](O)[C@@H](O)[C@@H](O[C@H]8[C@H](O)[C@@H](O)[C@@H](O[C@H]1[C@H](O)[C@H]2O)O[C@@H]8CO)O[C@@H]7CO)O[C@@H]6CO)O[C@@H]5CO)O[C@@H]4CO)O[C@@H]3CO [β-cyclodextrin]
Kd (R. oryzae CBM21): 5.1 µM
Kd (GM CBM21): 8.2 µM

KD by GCI for binding to PP1 (PP1 7-330): almost halved
Molecule: PTG81-132: extended PTG peptide, residues 81–132, including RVVF and SALK sequences; ProteoGenix SAS (AKKRVVFADSKGLSLTAIHVFSDLPEEPAWDLQFDLLDLNDISSALKHHEEK)

times weaker PP1 binding than measured for PTG (PP1): ~15 times
Molecule: GM peptide 64–105: GM (PPP1R3A) peptide 64–105, corresponding to PTG 84–131; literature comparator (VSFADSFGFNLVSVKEFDCWELPSASTTFDLGTDIFHTEEYV; UniProt Q16821 64-105, looked up, fragment)
